Experimental data taken from article PMC11901705 (Molecules, 2025).

How the values were obtained:
[1] = Freeze and thaw stability of vancomycin in human plasma; assay type: in vitro ADME; settings: nominal 10 mg/L
Experimental: (§1) The chromatographic separation was performed using HPLC-UV (Shimadzu, Kyoto, Japan), which consisted of solvent delivery pumps (LC-20 AT), an SIL-20A autosampler, and a UV-VIS detector (SPD-10A VP). The HPLC chromatographic separation was performed using a reverse-phase Supleco Discovery® C18 column (5 μm, 250 × 4.6 mm) (Supleco Inc., Mississauga, ON, Canada) with a Discovery® C18 Supelguard™ guard column (5 μm, 20 × 4 mm) (Supleco Inc., Mississauga, ON, Canada). LabSolutions Lite® software version 5.93 (Shimadzu, Kyoto, Japan) was used for the acquisition of data and analysis integration. The mobile phase comprised phosphate buffer and ACN (90:10, v/v). A phosphate buffer with a pH of 2.8 was prepared by combining 175 mL of 0.1 M phosphoric acid with 825 mL of 0.1 M monobasic sodium monophosphate. […] The final concentration of the phosphate buffer was 0.1 M. Separation was carried out using isocratic elution. The flow rate was set to 1 mL/min. The total run time for sample elution was set to 10 min. The detector was set to a wavelength of 192 nm, with the column and autosampler operated at ambient temperature.
The mixture was vortexed for 40 s and centrifuged at 12,000 rpm for 10 min using an Eppendorf 5424 Microcentrifuge (Eppendorf, Hamburg, Germany). The resultant supernatant was then transferred to a separate HPLC vial with glass inserts. […]

[2] = Stability of vancomycin in non-extracted human plasma samples; assay type: in vitro ADME; settings: for Mean back calculated Vancomycin Concentrations / % Error: non-extracted human plasma; for Mean back calculated Vancomycin Concentrations: HPLC-UV, mean of n = 5; for % Error: n = 5; for time of stability: plasma samples (non-extracted)
Experimental: as §1
(§2) The mixture was vortexed for 40 s and centrifuged at 12,000 rpm for 10 min using an Eppendorf 5424 Microcentrifuge (Eppendorf, Hamburg, Germany). The resultant supernatant was then transferred to a separate HPLC vial with glass inserts. Aliquots of 30 μL was then injected into the HPLC system for analysis. The sample preparation was performed at room temperature and directly injected into the HPLC system.
(§3) The conditions for stability assessment were designed to simulate the conditions encountered during sample storage, handling, and analysis. […] Additionally, we conducted an assessment of freeze–thaw stability involving three cycles, each comprising a 24 h freezing period followed by room temperature thawing, with the cycle being repeated. Acceptability criteria included a stability ratio to reference samples falling within the range of 85% to 115% and a percentage error within 15%.

[3] = cited from earlier work
Source text: It is also the preferred agent for managing Gram-positive bacterial infections in patients allergic to beta-lactam antimicrobials.

[4] = Stability of vancomycin in extracted human plasma samples; assay type: physicochemical; settings: for Mean back calculated Vancomycin Concentrations: extracted human plasma, HPLC-UV, mean of n = 5
Experimental: as §1, §2, §3

[5] = -20 °C, 2 weeks, nominal 10 mg/L
[6] = -80 °C, 2 weeks, nominal 10 mg/L
[7] = -80 °C, 24 hours, nominal 10 mg/L
[8] = -80 °C, 24 hours, nominal 70 mg/L
[9] = fridge temperature, 2 weeks, nominal 10 mg/L
[10] = fridge temperature, 3 hours, nominal 10 mg/L
[11] = fridge temperature, 3 hours, nominal 70 mg/L
[12] = fridge temperature, 24 hours, nominal 10 mg/L
[13] = room temperature, 24 hours, nominal 10 mg/L

CN[C@H](CC(C)C)C(=O)N[C@H]1C(=O)N[C@@H](CC(N)=O)C(=O)N[C@H]2C(=O)N[C@H]3C(=O)N[C@H](C(=O)N[C@H](C(=O)O)c4cc(O)cc(O)c4-c4cc3ccc4O)[C@H](O)c3ccc(c(Cl)c3)Oc3cc2cc(c3O[C@@H]2O[C@H](CO)[C@@H](O)[C@H](O)[C@H]2O[C@H]2C[C@](C)(N)[C@H](O)[C@H](C)O2)Oc2ccc(cc2Cl)[C@H]1O [Vancomycin]
Mean back calculated Vancomycin Concentrations ([1]; three freeze-thaw cycles (24 h freezing, room temperature thawing), HPLC-UV, mean of n = 5): 9.289 mg/L
% Error ([1]; three freeze-thaw cycles, n = 5): 7.110%
Mean back calculated Vancomycin Concentrations [2, 5]: 8.179 mg/L
% Error [2, 5]: 18.210%
% Error ([2]; -20 °C, 2 weeks, nominal 70 mg/L): 12.943%
Mean back calculated Vancomycin Concentrations [2, 6]: 8.809 mg/L
% Error [2, 6]: 11.910%
Mean back calculated Vancomycin Concentrations ([2]; -80 °C, 2 weeks, nominal 70 mg/L): 69.056 mg/L
Mean back calculated Vancomycin Concentrations [2, 7]: 9.282 mg/L
Mean back calculated Vancomycin Concentrations [2, 8]: 67.964 mg/L
% Error [2, 8]: 2.909%
Mean back calculated Vancomycin Concentrations [2, 9]: 8.404 mg/L
% Error [2, 9]: 15.960%
% Error ([2]; fridge temperature, 2 weeks, nominal 70 mg/L): 1.271%
Mean back calculated Vancomycin Concentrations [2, 10]: 9.276 mg/L
% Error [2, 10]: 7.240%
Mean back calculated Vancomycin Concentrations [2, 11]: 75.272 mg/L
% Error [2, 11]: 7.531%
Mean back calculated Vancomycin Concentrations [2, 12]: 8.860 mg/L
% Error [2, 12]: 11.400%
% Error ([2]; fridge temperature, 24 hours, nominal 70 mg/L): 0.770%
Mean back calculated Vancomycin Concentrations ([2]; room temperature, 3 hours, nominal 70 mg/L): 70.355 mg/L
Mean back calculated Vancomycin Concentrations [2, 13]: 9.543 mg/L
time of stability ([2]; -80 °C): 2 weeks
time of stability ([2]; room temperature): 24 h
oral bioavailability [3]: negligible
period with satisfactory precision and accuracy ([4]; extracted human plasma samples, -80 °C storage): 2 week
degradation on storage at room temperature ([4]; extracted human plasma samples, storage for 24 h, 1 week and 2 weeks): substantial degradation
period with satisfactory precision and accuracy ([4]; extracted human plasma samples, under refrigeration): 2 week
Mean back calculated Vancomycin Concentrations [4, 6]: 8.980 mg/L
Mean back calculated Vancomycin Concentrations [4, 7]: 9.888 mg/L
Mean back calculated Vancomycin Concentrations ([4]; fridge temperature (4 °C), 2 weeks, nominal 10 mg/L): 8.307 mg/L
Mean back calculated Vancomycin Concentrations ([4]; fridge temperature (4 °C), 3 hours, nominal 10 mg/L): 8.720 mg/L
Mean back calculated Vancomycin Concentrations ([4]; fridge temperature (4 °C), 24 hours, nominal 10 mg/L): 9.740 mg/L
Mean back calculated Vancomycin Concentrations ([4]; fridge temperature (4 °C), 24 hours, nominal 70 mg/L): 76.528 mg/L
Mean back calculated Vancomycin Concentrations ([4]; room temperature, 1 week, nominal 10 mg/L): 2.491 mg/L
Mean back calculated Vancomycin Concentrations ([4]; room temperature, 2 weeks, nominal 10 mg/L): 0.722 mg/L
Mean back calculated Vancomycin Concentrations ([4]; room temperature, 2 weeks, nominal 70 mg/L): 3.647 mg/L
Mean back calculated Vancomycin Concentrations ([4]; room temperature, 3 hours, nominal 10 mg/L): 9.283 mg/L
Mean back calculated Vancomycin Concentrations [4, 13]: 6.792 mg/L
